Assays:
[1] = system: cJun bZIP / TRE sites in TRE-mDHFR gene; assay: Transcription block survival (TBS) colony counting in E. coli; format: cell-based, human cJun, expressed in E. coli
Protocol: Figure 3 Transcription block survival (TBS) assay to derive functionally active cJun inhibitors. (A) Schematic illustrating the design and operation of TBS. (B) Controlled numbers of E. coli expressing the indicated proteins were plated on selective media and growth rates were calculated by counting colony-forming units. […] (2) A small effect on colony numbers is observed when cJun bZIP is additionally expressed. (3) TRE-mDHFR can replace the inhibited ecDHFR with colony count lower than for WT as expected. […] Although (6) cFos LZ and (7) FosW are known cJun-binders, they are unable to effectively dissociate the cJun bZIP from TRE DNA. However, (8) A-FosW and the TBS-derived hit (9) HingeW remove TRE-mDHFR transcriptional blocks to restore cell survival. Bar charts represent averages of three experimental repeats. Errors are shown as one standard deviation. Selected P values from a t-test are indicated (*P ≤ 0.05; **P ≤ 0.01; ****P ≤ 0.0001) with values for all possible comparisons within the bar chart reported in Figure S7. Serial dilutions were used to quantify colony numbers where required. Also shown are representative plate images and schematics to illustrate the effect upon TRE-mDHFR transcription. […]
Library Construction and TBS Assay: Library inserts were produced using PCR fill-in reactions from synthesised primers (Sigma) with degenerate codons at the desired positions to produce the correct residue options. The library was subcloned using SacI and AscI sites into the pET24a plasmid containing A-FosW. The primers used were cJun- […]
-3’ and cJun-Hinge-Lib_R: 5’-
-3’. The library DNA was transformed into NEB 10-beta electrocompetent E. coli cells. The following equation was utilised to determine library […]
coverage by the number of single colonies: where E is the percentage […] of the library missing, m is the number of colonies collected and n is the library size. This […]
covered. Library DNA quality was assessed by sequencing both the DNA pool and a number of single colonies to show degenerate codons in the correct positions in the pool and to show a diversity of library members from single colonies. The pool of library DNA was transformed into BL21 Gold cells already containing pES300d-TRE-mDHFR and […]
(§1) µM) alongside ampicillin, kanamycin and chloramphenicol to maintain the required plasmids, and IPTG (1 mM) to induce protein expression. The library transformants were […]
however a lower stringency is used initially before selection is increased in later steps.
Colonies from this first round of selection were pooled and serially grown in liquid culture at starting OD600 of 0.05 and grown at 37°C with shaking at 200 rpm until the OD600 […]
increased to the optimum 4 µM in subsequent passages. Bacteria containing the most effective functional antagonists were expected to produce higher levels of TRE-mDHFR which provides a growth advantage, and these will dominate the culture. At each passage step, a sample of the culture was plated on LB agar (supplemented with antibiotics to maintain plasmids) to select and sequence individual colonies, and a DNA pool was also sequenced. This allows the occurrence of library members to be monitored as winner sequences are selected for. Assay Validation experiments utilised a modified assay methodology whereby overnight cultures from glycerol stocks of the Control Strains (Figure S6) were diluted to OD600=0.5 and 50 µL was plated on a selective M9 minimal […]

[2] = CD spectroscopy of single components (helicity); format: physicochemical; details: 20 °C, 10 μM, 150 mM potassium phosphate, 150 mM KF, 5 mM TCEP, pH 7.4
Protocol: Figure 5 TBS winner peptide HingeW binds cJun preferentially over A-FosW. CD spectra (20 °C) show the binding of cJun to either (A) HingeW or (B) A-FosW. […] However, the effect is larger for HingeW, indicating a greater increase in peptide helicity. Similarly, the thermal denaturation of cJun bound to either (C) HingeW or (D) A-FosW is right-shifted from the average of the component peptide denaturation profiles. […] CD dimer exchange spectra show (E) an increase in helicity when HingeW is mixed with the A-FosW/cJun heterodimer as the HingeW exchanges with the A-FosW due to the binding preference of cJun for HingeW and (F) no shift from the average is observed when A-FosW is mixed with the HingeW/cJun heterodimer, indicating no change in dimer populations. Arrows are shown to highlight the shift from the average at 190 and 222 nm. In all experiments, the total sample peptide concentration was fixed to 10 μM, using equimolar concentrations of each component peptide to remove concentration-dependent effects. […]
as §1
increased to the optimum 4 µM in subsequent passages. […] This allows the occurrence of library members to be monitored as winner sequences are selected for. […]

Substance	colony numbers restored relative to TRE-mDHFR only ([1]; TRE-mDHFR + cJun bZIP + peptide, M9 + 4 μM TMP + 1 mM IPTG, average of three experimental repeats)	Fraction helicity of single component [2]	reduction in colony counts on expression of cJun bZIP with TRE-mDHFR ([1]; M9 minimal media + 4 μM TMP + 1 mM IPTG, TRE-mDHFR + cJun bZIP, P ≤ 0.0001, average of three experimental repeats)	reduction in colony counts on expression of cJun bZIP without TRE sites (WT-mDHFR) ([1]; M9 minimal media + 4 μM TMP + 1 mM IPTG, WT-mDHFR + cJun bZIP vs WT-mDHFR, P ≤ 0.05, three experimental repeats)
LEQRAEELARENEELEKEAEELEQELDELQAEIEQLEERNYALRKEIEDLQKQLEKL [A-FosW, N-terminal AS and C-terminal GAP caps, 6xHis-tagged]	60%	40.1%		
cJun bZIP: human cJun bZIP domain, Arg252 to Leu308 (target protein)		14.0%	21 fold	1.3 fold
